For this assay, the system named is Clostridium perfringens. The assay is described as follows: Antimicrobial activity against Clostridium perfringens assessed as resistant isolates by agar dilution method. The assay is classed as functional. On the technique in general: Agar dilution tests growth on a series of plates holding different concentrations.
On to `CCC[C@@H]1C[C@@H](C(=O)N[C@@H]([C@H]2O[C@H](SC)[C@H](O)[C@@H](O)[C@H]2O)[C@H](C)Cl)N(C)C1` [CLINDAMYCIN], for which the Activity was 0%. Consider `CCN1CCN(C(=O)N[C@@H](C(=O)N[C@@H]2C(=O)N3[C@@H]2SC(C)(C)[C@@H]3C(=O)O)c2ccccc2)C(=O)C1=O` [PIPERACILLIN], for which the Activity was determined as 0%.

As to `Cc1ncc([N+](=O)[O-])n1CCO` [METRONIDAZOLE], the Activity stood at 7.8%. Turning to `C[C@@H](O)[C@H]1C(=O)N2C(C(=O)O)=C(S[C@@H]3CN[C@H](C(=O)N(C)C)C3)[C@H](C)[C@H]12` [MEROPENEM], the Activity is given as 0%.

For `CN[C@H](CC(C)C)C(=O)N[C@H]1C(=O)N[C@@H](CC(N)=O)C(=O)N[C@H]2C(=O)N[C@H]3C(=O)N[C@H](C(=O)N[C@H](C(=O)O)c4cc(O)cc(O)c4-c4cc3ccc4O)[C@H](O)c3ccc(c(Cl)c3)Oc3cc2cc(c3O[C@@H]2O[C@H](CO)[C@@H](O)[C@H](O)[C@H]2O[C@H]2C[C@](C)(N)[C@H](O)[C@H](C)O2)Oc2ccc(cc2Cl)[C@H]1O` [VANCOMYCIN], the Activity worked out at 0%. With `CC1(C)S[C@@H]2[C@H](NC(=O)[C@H](N)c3ccccc3)C(=O)N2[C@H]1C(=O)O` [AMPICILLIN], the Activity was found to be 0%. Regarding `C[C@@H](O)[C@H]1C(=O)N2C(C(=O)O)=C(S[C@@H]3CN[C@H](C(=O)Nc4cccc(C(=O)O)c4)C3)[C@H](C)[C@H]12`, the Activity stood at 0%. In the case of `CC(=O)NC[C@H]1CN(c2ccc(N3CCOCC3)c(F)c2)C(=O)O1` [LINEZOLID] it was 0%. Take `CO[C@@]1(NC(=O)Cc2cccs2)C(=O)N2C(C(=O)O)=C(COC(N)=O)CS[C@@H]21` [CEFOXITIN]: the Activity is on record as 0%. In the case of `C[C@@H](O)[C@H]1C(=O)N2C(C(=O)O)=C(SCCNC=N)C[C@H]12` [IMIPENEM ANHYDROUS], the Activity came to 0%.

On to `C[C@@H](O)[C@H]1C(=O)N2C(C(=O)O)=C(S[C@@H]3CN[C@H](CNS(N)(=O)=O)C3)[C@H](C)[C@H]12` [DORIPENEM], for which the Activity is 0%.
